The text below walks through data of paper PMC11148080, “Ru(II)-based complexes containing 2-thiouracil derivatives suppress liver cancer stem cells by targeting NF-κB and Akt/mTOR signaling” (Cell Death Discovery, 2024).

Structures are written as SMILES.

For experiment [1], the system named is HepG2 cells. The experiment in a line: Wound healing assay. Type of experiment: cell-based, human. The note with it: 72 h; 0.5 μM complex 1, 0.3 μM complex 2 (noncytotoxic). The protocol:
Wound healing assays were performed as previously described. The cells were grown to 80–90% confluency in 12-well plates, and a wound was formed by dragging a plastic pipette tip over the cell surface. The remaining cells were washed three times with saline solution to eliminate cell debris before being cultured in serum-free media and treated with drugs. After 0 and 72 h of incubation, the migrating cells in front of the wound were photographed using an optical microscope (Nikon, TS 100). The wound area was calculated using ImageJ software from the National Institutes of Health (NIH, USA).

The subject of experiment [2] is HepG2 cells. Kind of experiment: Mitochondrial transmembrane potential (rhodamine 123). Format: cell-based, human. The note with it: HepG2, 24 h. The protocol:
For apoptosis detection, cell viability was quantified using Annexin V-FITC/PI (FITC Annexin V Apoptosis Detection Kit I, BD Biosciences, San Jose, CA, USA) according to the manufacturer’s instructions. The cells were also stained with rhodamine 123 (5 μg/mL, Sigma Aldrich Co.) for 15 min at 37 °C in the dark to assess the mitochondrial transmembrane potential. After the cells were washed, they were incubated in saline for 30 min in the dark at 37 °C and analyzed by flow cytometry.

The subject of experiment [3] is HepG2 cells. Kind of experiment: EMT markers vimentin and E-cadherin by flow cytometry. Type of experiment: cell-based, human. The following applies: HepG2, 24 h; 6 μM complex 2. Here is the method: To stain the cell surface proteins, the cells were washed with an incubation buffer (0.5% bovine serum albumin in PBS), and then antibodies were added and incubated for 1 h at room temperature. The cells were then washed with PBS, and the fluorescence signal was measured by flow cytometry. CD133 and CD44 were quantified in YO-PRO-1 (Sigma‒Aldrich Co.) negative cells.
To stain intracellular proteins, the cells were harvested and resuspended in 0.5-1 mL of 4% formaldehyde for 10 min at 37 °C. The tube was then placed on ice for 1 min, after which the cells were prechilled and permeabilized using a sequence of 100% (30 min) to 90% (30 min) methanol with gentle mixing. After washing with incubation buffer (0.5% bovine serum albumin in PBS), primary antibodies were added and incubated for 1 h at room temperature. Finally, the cells were washed with PBS, and flow cytometry was used to measure cell fluorescence.

For another experiment, the system named is BAD KO SV40 MEF. Kind of experiment: Alamar Blue survival curves. Format: cell-based, mouse. The following applies: for involvement of proapoptotic protein BAD in cell death: BAD KO SV40 MEF vs WT SV40 MEF; for IC50: BAD KO SV40 MEF, 72 h. The protocol:
(§1) A Quantification of mitochondrial membrane depolarization in HepG2 cells after 24 h of incubation with complex 1 or 2, as determined by flow cytometry. B and C Quantification of PARP (Asp214) cleavage in HepG2 cells after 24 h of incubation with complex 1 (8 μM) or 2 (6 μM), as determined by flow cytometric analysis. MFI: Mean fluorescence intensity. D Survival curves of WT SV40 MEFs and BAD KO SV40 MEFs upon treatment with complexes 1 and 2 and 5-fluorouracil (5-FU, used as a positive control). The curves were obtained from at least three biological replicates carried out in duplicate using the Alamar Blue assay after 72 h of incubation. E DNA fragmentation (sub-G0/G1 cells) and cell cycle distribution (G0/G1, S and G2/M phases) of WT SV40 MEFs and BAD KO SV40 MEFs after 48 h of incubation with complexes 1 (10 μM) and 2 (10 μM) or 5-FU (40 μM). The vehicle (0.2% DMSO) was used as a negative control (CTL). The data are expressed as the mean ± S.E.M. of three biological replicates carried out in duplicate. *P < 0.05 compared to CTL by one-way analysis of variance (ANOVA) followed by Dunnett’s multiple comparisons test.
(§2) The Alamar Blue assay was used to measure cell viability, as previously described. Adherent cells were seeded in 96-well plates at a density of 7 × 10^3 cells per well, and suspended cells were seeded at 3 × 10^4 cells per well. Drugs were added to each well after overnight incubation for adherent cells or immediately after seeding for suspension cells, and incubation continued for an additional 72 h. […] Four hours (for cell lines) or 24 h (for primary cultures) before the end of incubation, 20 μL of resazurin (30 μM) (Sigma‒Aldrich Co. St. Louis, MO, USA) was added to each well. The absorbance at 570 and 600 nm was measured using a SpectraMax 190 microplate reader (Molecular Devices, Sunnyvale, CA, USA).
On the technique in general: Alamar Blue is a resazurin reagent that responds to reducing activity.

The test system of another experiment is WT SV40 MEF. Kind of experiment: Alamar Blue survival curves. Format: cell-based, mouse. The note with it: 72 h. Here is the method:
as §1, §2

`Cc1cc(=O)nc([S][Ru+])[nH]1.F[P-](F)(F)(F)(F)F.c1ccc(-c2ccccn2)nc1.c1ccc(P(c2ccccc2)c2ccccc2)cc1.c1ccc(P(c2ccccc2)c2ccccc2)cc1` [Complex 2, trans-[Ru(6m2TU)(PPh3)2(bipy)]PF6]: the “HepG2 cell migration, wound healing” value in the experiment on HepG2 cells [1] is “reduced”. Further, in the experiment with HepG2 cells [2], the mitochondrial depolarization result is recorded as “Significant mitochondrial depolarization”. Besides, in the experiment with HepG2 cells [3], the E-cadherin expression entry is given as “increased” and the vimentin expression result is listed as “reduced”. For the same compound, in the experiment on BAD KO SV40 MEF, the “involvement of proapoptotic protein BAD in cell death” value is listed as “independent of the protein BAD” and half-maximal inhibition (IC50) was put at 4.1 µM. Also, the IC50 – broadly, the concentration at which inhibition is half-maximal – in the experiment with WT SV40 MEF came out at 5.1 µM.
As for `F[P-](F)(F)(F)(F)F.O=c1cc[nH]c([S][Ru+])n1.c1ccc(-c2ccccn2)nc1.c1ccc(P(c2ccccc2)c2ccccc2)cc1.c1ccc(P(c2ccccc2)c2ccccc2)cc1` [Complex 1, trans-[Ru(2TU)(PPh3)2(bipy)]PF6], in the experiment on HepG2 cells [1], the “HepG2 cell migration, wound healing” value was “reduced”. Moreover, in the experiment on HepG2 cells [2], the mitochondrial depolarization entry is recorded as “Significant mitochondrial depolarization”. In the experiment with BAD KO SV40 MEF, the “involvement of proapoptotic protein BAD in cell death” value is given as “independent of the protein BAD”. The IC50 with BAD KO SV40 MEF came out at 4.6 µM; with WT SV40 MEF, 5.4 µM.
